Test results from ChEMBL document CHEMBL1201862, “PubChem BioAssay data set” (2004).
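Five compound concentrations were applied to cells in 96-well plates for 48 hours; endpoints were derived by simple linear interpolation of the resulting dose-response curve. Here, GI50 denotes the concentration required for 50% inhibition of growth.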 Calls of active or inactive are those of the source. Rule as the data show it: active = GI50 up to about 1.1 µM and inactive = higher.

Legend:
Assay in all cases: inhibition of tumour cell growth, NCI panel, 48 h
MDA-MB-231 = tested on: MDA-MB-231
UO-31 = tested on: UO-31
MOLT-4 = tested on: MOLT-4
NCI-H23 = tested on: NCI-H23
CCRF-CEM = tested on: CCRF-CEM
HOP-62 = tested on: HOP-62
A498 = tested on: A498
MCF7 = tested on: MCF7
SK-MEL-2 = tested on: SK-MEL-2
DU-145 = tested on: DU-145
Malme-3M = tested on: Malme-3M
SF-268 = tested on: SF-268
SR = tested on: SR
U-251 = tested on: U-251
NCI-H226 = tested on: NCI-H226
TK-10 = tested on: TK-10
786-0 = tested on: 786-0
HOP-92 = tested on: HOP-92
MDA-N = tested on: MDA-N

Structure (SMILES) | GI50 (MDA-MB-231) | GI50 (UO-31) | GI50 (MOLT-4) | GI50 (NCI-H23) | GI50 (CCRF-CEM) | GI50 (HOP-62) | GI50 (A498) | GI50 (MCF7) | GI50 (SK-MEL-2) | GI50 (DU-145) | GI50 (Malme-3M) | GI50 (SF-268) | GI50 (SR) | GI50 (U-251) | GI50 (NCI-H226) | GI50 (TK-10) | GI50 (786-0) | GI50 (HOP-92) | GI50 (MDA-N)
O=C(O)c1cc(CC2Cc3cc4c(cc3C2=O)CCC4)cc2c1CCC2 (centres undefined) | 76.4 µM (inactive) | > 100 µM (inactive) | > 100 µM (inactive) | > 100 µM (inactive) | 59.3 µM (inactive) | > 100 µM (inactive) | > 100 µM (inactive) | > 100 µM (inactive) | > 100 µM (inactive) | > 100 µM (inactive) | > 100 µM (inactive) | > 100 µM (inactive) | 67.1 µM (inactive) | 82.2 µM (inactive) | > 100 µM (inactive) | > 100 µM (inactive) | > 100 µM (inactive) | – | –
c1ccc(Nc2nnc(CCCCCCCCc3nnc(Nc4ccccc4)o3)o2)cc1 | > 100 µM (inactive) | > 100 µM (inactive) | > 100 µM (inactive) | > 100 µM (inactive) | > 100 µM (inactive) | > 100 µM (inactive) | > 100 µM (inactive) | > 100 µM (inactive) | > 100 µM (inactive) | > 100 µM (inactive) | > 100 µM (inactive) | > 100 µM (inactive) | – | > 100 µM (inactive) | > 100 µM (inactive) | > 100 µM (inactive) | > 100 µM (inactive) | – | –
c1csc(-c2ccc(-c3ccc(-c4ccc(-c5cccs5)s4)s3)s2)c1 | – | > 100 µM (inactive) | 31.6 µM (inactive) | > 100 µM (inactive) | 26.5 µM (inactive) | 34 µM (inactive) | > 100 µM (inactive) | 8.36 µM (inactive) | – | > 100 µM (inactive) | – | > 100 µM (inactive) | 35.7 µM (inactive) | > 100 µM (inactive) | > 100 µM (inactive) | > 100 µM (inactive) | > 100 µM (inactive) | > 100 µM (inactive) | –
O=C(Nc1ccc(N=C=S)cc1Cl)c1cc(Br)cc(Br)c1O | 21.5 µM (inactive) | 30.3 µM (inactive) | 24.2 µM (inactive) | 26.7 µM (inactive) | – | 30.6 µM (inactive) | – | 31.5 µM (inactive) | 31.6 µM (inactive) | 15.9 µM (inactive) | 37.8 µM (inactive) | 36.9 µM (inactive) | 28.6 µM (inactive) | 22.2 µM (inactive) | 18.5 µM (inactive) | 27.9 µM (inactive) | 26.3 µM (inactive) | 14.1 µM (inactive) | –
CC(C)(C)c1cc(C(C)(C)C)c(SSc2c(C(C)(C)C)cc(C(C)(C)C)c(O)c2O)c(O)c1O | 14.7 µM (inactive) | 6.18 µM (inactive) | 2.67 µM (inactive) | 10.3 µM (inactive) | 2.5 µM (inactive) | – | 14 µM (inactive) | 10.3 µM (inactive) | 14.4 µM (inactive) | – | 21.4 µM (inactive) | 10.1 µM (inactive) | 2.94 µM (inactive) | 10.5 µM (inactive) | 15 µM (inactive) | – | 6.4 µM (inactive) | 17.7 µM (inactive) | 10.4 µM (inactive)
CC(C)C(=O)/C=C/S/C=C/C(=O)C(C)C | 3.7 µM (inactive) | 4.93 µM (inactive) | – | 2.59 µM (inactive) | – | 21.2 µM (inactive) | – | 23 µM (inactive) | 23.4 µM (inactive) | 13.4 µM (inactive) | 6.7 µM (inactive) | 26.2 µM (inactive) | – | 18.6 µM (inactive) | 7 µM (inactive) | > 100 µM (inactive) | 2.53 µM (inactive) | – | –
COc1cc(C2C(Cl)C(=O)N2NC(=O)c2ccccc2O)cc(OC)c1OC (centres undefined) | – | 7.76 µM (inactive) | 3.01 µM (inactive) | 2.4 µM (inactive) | 1.65 µM (inactive) | – | – | 2.9 µM (inactive) | – | 0.284 µM (active) | – | 5.73 µM (inactive) | 2.98 µM (inactive) | 3.54 µM (inactive) | 4.49 µM (inactive) | 8.51 µM (inactive) | > 10 µM (inactive) | 5.66 µM (inactive) | –
COc1cc(C2c3cc4c(cc3C(=O)C3CCC(=O)N32)OCO4)cc(OC)c1O (centres undefined) | – | > 50 µM (inactive) | > 50 µM (inactive) | > 50 µM (inactive) | > 50 µM (inactive) | > 50 µM (inactive) | > 50 µM (inactive) | > 50 µM (inactive) | > 50 µM (inactive) | > 50 µM (inactive) | – | – | > 50 µM (inactive) | > 50 µM (inactive) | > 50 µM (inactive) | – | > 50 µM (inactive) | > 50 µM (inactive) | > 50 µM (inactive)
c1ccc(-c2sc(-c3ccccc3)c3c2C2CCC3C2)cc1 | 27.6 µM (inactive) | 16 µM (inactive) | 52.4 µM (inactive) | 33.5 µM (inactive) | 43.9 µM (inactive) | 38.2 µM (inactive) | 53.3 µM (inactive) | – | 19.2 µM (inactive) | > 100 µM (inactive) | 31.6 µM (inactive) | 53.3 µM (inactive) | 17.4 µM (inactive) | 38.2 µM (inactive) | 32.5 µM (inactive) | 27 µM (inactive) | 45.9 µM (inactive) | 12.6 µM (inactive) | 43 µM (inactive)
CCOC(=O)c1cc(C)nc2c1c(=O)n(-c1ccccc1)c(=O)n2CCCCN1CCN(c2ccccc2)CC1 | 48.1 µM (inactive) | 6.17 µM (inactive) | 24.5 µM (inactive) | 77.3 µM (inactive) | – | > 100 µM (inactive) | 27.6 µM (inactive) | 28.3 µM (inactive) | 64.9 µM (inactive) | > 100 µM (inactive) | > 100 µM (inactive) | > 100 µM (inactive) | 19 µM (inactive) | > 100 µM (inactive) | > 100 µM (inactive) | > 100 µM (inactive) | 73.1 µM (inactive) | > 100 µM (inactive) | –
O=C(O)c1ccc(Nc2nc3ccccc3nc2-c2cccs2)cc1 | > 100 µM (inactive) | 63.5 µM (inactive) | > 100 µM (inactive) | > 100 µM (inactive) | > 100 µM (inactive) | > 100 µM (inactive) | 47 µM (inactive) | – | – | > 100 µM (inactive) | 60.3 µM (inactive) | 82.2 µM (inactive) | 65.9 µM (inactive) | 95.9 µM (inactive) | > 100 µM (inactive) | > 100 µM (inactive) | 71.9 µM (inactive) | 68.2 µM (inactive) | > 100 µM (inactive)
CC1(C)/C(=N\NC(N)=O)C2CCC1C2 (centres undefined) | – | > 100 µM (inactive) | > 100 µM (inactive) | > 100 µM (inactive) | > 100 µM (inactive) | > 100 µM (inactive) | – | > 100 µM (inactive) | > 100 µM (inactive) | > 100 µM (inactive) | > 100 µM (inactive) | > 100 µM (inactive) | > 100 µM (inactive) | > 100 µM (inactive) | > 100 µM (inactive) | > 100 µM (inactive) | > 100 µM (inactive) | > 100 µM (inactive) | > 100 µM (inactive)
CN(CCc1ccccn1)c1ccc2c(c1)Cc1ccccc1-2 | 3.09 µM (inactive) | 38.2 µM (inactive) | 5.42 µM (inactive) | 27.7 µM (inactive) | 10.2 µM (inactive) | 16.1 µM (inactive) | 16.8 µM (inactive) | 20.1 µM (inactive) | – | 43.7 µM (inactive) | 9.68 µM (inactive) | 6.5 µM (inactive) | – | 5.35 µM (inactive) | 14.9 µM (inactive) | 31.5 µM (inactive) | 25.8 µM (inactive) | 10.2 µM (inactive) | –
COc1ccc(CNc2nc(NCc3ccc(OC)c(OC)c3)nc(NC3CCCCC3)n2)cc1 | 5.13 µM (inactive) | 5.18 µM (inactive) | 5.22 µM (inactive) | 2.86 µM (inactive) | 3.66 µM (inactive) | – | – | 1.29 µM (inactive) | 4.26 µM (inactive) | 3.4 µM (inactive) | 37.2 µM (inactive) | – | 0.611 µM (active) | 3.44 µM (inactive) | 6.55 µM (inactive) | 18.5 µM (inactive) | 5.64 µM (inactive) | > 100 µM (inactive) | –
C=C1C(=O)C23CC1C[C@H](OC(C)=O)C2C1(C)C(OC(C)=O)C[C@H](O)C(C)(C)[C@H]1C(O)[C@@H]3OC(C)=O (some centres undefined) | 7.19 µM (inactive) | 16.9 µM (inactive) | 2.73 µM (inactive) | 12.6 µM (inactive) | 2.24 µM (inactive) | 18.9 µM (inactive) | 15.1 µM (inactive) | 5.78 µM (inactive) | 14.8 µM (inactive) | 18.1 µM (inactive) | 7.01 µM (inactive) | 13.4 µM (inactive) | 7.48 µM (inactive) | 15.3 µM (inactive) | 22.1 µM (inactive) | 3.79 µM (inactive) | 7.87 µM (inactive) | 9.29 µM (inactive) | –
C[C@]12CC[C@@H]3c4cc(I)c(O)cc4CC[C@H]3[C@@H]1CC[C@@H]2O | 5.25 µM (inactive) | 5.74 µM (inactive) | 5.42 µM (inactive) | 9.89 µM (inactive) | 3.15 µM (inactive) | – | 8.43 µM (inactive) | 5.87 µM (inactive) | 3.02 µM (inactive) | – | 9.89 µM (inactive) | 9.38 µM (inactive) | 3.1 µM (inactive) | 4.48 µM (inactive) | 15.5 µM (inactive) | 9.68 µM (inactive) | 5.06 µM (inactive) | 10.3 µM (inactive) | 1.74 µM (inactive)
COc1ccc(N2C(=O)C(=O)N(c3ccccc3[N+](=O)[O-])C2=S)cc1 | 20.4 µM (inactive) | 34 µM (inactive) | 34.8 µM (inactive) | 21 µM (inactive) | 81.7 µM (inactive) | 50 µM (inactive) | 27 µM (inactive) | – | 14.6 µM (inactive) | 38.4 µM (inactive) | 36.8 µM (inactive) | 33.7 µM (inactive) | 47.3 µM (inactive) | 37.8 µM (inactive) | 28.2 µM (inactive) | 21.7 µM (inactive) | 33 µM (inactive) | 19.6 µM (inactive) | 27 µM (inactive)
